Results on 32 compounds are retold here after patent US20250101003A1, “SPIROCYCLIC CAV2.3 ANTAGONISTS” (LARIO THERAPEUTICS LIMITED, priority 2021, published 2025).

SMILES strings stand for the structures.

The test deals with Cav2.3 (Homo sapiens, UniProt Q15878). As to the kind of experiment: Human Cav2.3 channel calcium-influx assay. It is filed as cell-based. The conditions noted are these: HEK-293 T-Rex/Kir2.1/Cav2.3e-β4-α2δ1 cells, Fluo8 fluorescence, without pluronic acid; read-out: Cav2.3 (pIC50) (converted). As to the method: HEK-293 T-Rex cells were transfected with pcDNA3.1-Kir2.1 to generate a stable cell line. After antibiotic selection, the obtained stable pools were analysed using FLIPR^TETRA (membrane potential assay), and a limiting dilution was performed and a HEK-293 T-Rex/Kir2.1 clone was selected. The clone was transfected with pcDNA3.1-Cav2.3e and pBud-Cav-β4-α2δ1 to generate a stable cell line where the Cav2.3e expression is inducible. After antibiotic selection, functional clone pool analysis and two successive limiting dilutions, the final clone underwent a qPCR analysis and a biophysical and pharmacological validation using patch-clamp.
A compound plate, containing 10 test compounds in eight-points dose response with n=4, was prepared. Test compounds dose response curves were prepared in automated fashion in 100% DMSO at CyBio Felix and starting from a stock solution in 100% DMSO; a defined volume was serially moved into destination wells pre-filled with the desired DMSO volume; stock solution concentration volumes were dependent on the final compounds concentrations to be tested and the final DMSO content used in the assay. For the assay test compounds dose response curves ranged from 30 μM and half log dilution with 0.3% final DMSO. In order to obtain the 8-points dose response curve all the concentrations were created by starting from a 10 mM DMSO stock solution and then moving 9.5 μL into a destination well pre-filled with 20.5 μL of 100% DMSO and repeating this step seven times. This initial step was done into 96 MTP plates, 10 compounds/plate. One 384 MTP was then reformatted to contain all the 10 compounds at 8 concentrations, quadruplicate data points. This so obtained 384 MTP compound plate served as source plate in a “mother to child” process with a CyBi®-Well dispenser in which 0.7 μL of compounds were moved into a destination plate pre-filled with 57.6 μL of Tyrode's buffer 0 mM K+, thus obtaining 4× concentrated compounds solution. In columns 1-2 and 23-24 the control wells were added. Both “source” compound plate and “destination” compound plate were barcoded and a relationship between the two plates was thus generated.
The day before the experiment, cells were detached by gentle wash with DPBS, followed by 5 min incubation at 37° C. with Trypsin solution. Detached cells were diluted with OptiMEM+Doxycycline at 0.2 μg/mL, counted and plated in Poly-D-Lysine coated black/clear bottom (15.000 c/well in 20 μl/well) by the use of a MATRIX WellMate dispenser. Plates were placed into a humidified incubator at 37° C. with 5% CO2 until the experimental day. 24 h after seeding 10 μL/well of 1.5× Fluo8 NW dye solution prepared in Tyrode's buffer 0 mM K^+ were added on top of the seeding medium. Cell plates were incubated for 40-60 min at RT in the dark. We then Injected off-line 10 μL/well of test compounds and controls 4× concentrated in Tyrode's Buffer 0 mM K+ with the CyBi®-Well instrument. Cell plates were incubated 3 minutes at RT. Finally, we injected 20 μL/well of 3× concentrated activator solution (K20-Na130-Ca2 buffer: 20 mM KCl, 130 mM NaCl, 2 mM CaCl2, 10 mM HEPES, 10 mM Glucose, final concentrations, prepared starting from “KO-Na150-Ca2” and “K150-Na0-Ca2” buffers) at FDSS7000EX instrument and read emitted fluorescence for 130 seconds.
Data analysis was performed with Genedata Screener® software and reported compounds activity as % effect in relation to the normalization standards. The Kinetic Response Value (KRV) is calculated as follows:
KRV=Maximal fluorescence recorded from second 5 to second 130 minus baseline fluorescence, computed as average from second 1 to second 2, of the kinetic trace. The KRV was normalized versus Neutral Controls and Inhibitor Controls in order to obtain the Activity[%] for each well. […] Therefore, the compound activity values were scaled (based on the two references) to a common range (two-point normalization). […]

Sequence of Cav2.3 (Q15878 1-747 limits assumed): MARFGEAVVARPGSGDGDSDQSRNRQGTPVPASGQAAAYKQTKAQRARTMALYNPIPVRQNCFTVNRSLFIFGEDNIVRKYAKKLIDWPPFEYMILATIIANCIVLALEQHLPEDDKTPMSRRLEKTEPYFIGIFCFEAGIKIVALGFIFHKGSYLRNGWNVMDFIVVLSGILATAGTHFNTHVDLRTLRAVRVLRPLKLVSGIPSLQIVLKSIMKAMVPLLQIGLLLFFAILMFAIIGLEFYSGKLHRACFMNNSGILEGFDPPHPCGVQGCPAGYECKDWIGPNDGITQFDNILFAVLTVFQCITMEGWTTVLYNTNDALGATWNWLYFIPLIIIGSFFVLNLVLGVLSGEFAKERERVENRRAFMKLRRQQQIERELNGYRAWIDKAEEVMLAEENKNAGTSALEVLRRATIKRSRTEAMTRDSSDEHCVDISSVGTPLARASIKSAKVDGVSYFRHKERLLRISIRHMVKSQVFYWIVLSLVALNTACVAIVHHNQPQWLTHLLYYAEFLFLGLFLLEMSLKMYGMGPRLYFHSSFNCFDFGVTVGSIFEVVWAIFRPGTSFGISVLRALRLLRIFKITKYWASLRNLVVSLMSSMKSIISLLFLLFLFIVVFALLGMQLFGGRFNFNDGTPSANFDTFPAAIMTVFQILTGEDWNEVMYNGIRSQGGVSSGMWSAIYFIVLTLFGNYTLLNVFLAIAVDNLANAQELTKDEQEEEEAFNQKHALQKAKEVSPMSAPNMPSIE
Sequence of Cav2.3 (Q15878 1126-2313 limits assumed): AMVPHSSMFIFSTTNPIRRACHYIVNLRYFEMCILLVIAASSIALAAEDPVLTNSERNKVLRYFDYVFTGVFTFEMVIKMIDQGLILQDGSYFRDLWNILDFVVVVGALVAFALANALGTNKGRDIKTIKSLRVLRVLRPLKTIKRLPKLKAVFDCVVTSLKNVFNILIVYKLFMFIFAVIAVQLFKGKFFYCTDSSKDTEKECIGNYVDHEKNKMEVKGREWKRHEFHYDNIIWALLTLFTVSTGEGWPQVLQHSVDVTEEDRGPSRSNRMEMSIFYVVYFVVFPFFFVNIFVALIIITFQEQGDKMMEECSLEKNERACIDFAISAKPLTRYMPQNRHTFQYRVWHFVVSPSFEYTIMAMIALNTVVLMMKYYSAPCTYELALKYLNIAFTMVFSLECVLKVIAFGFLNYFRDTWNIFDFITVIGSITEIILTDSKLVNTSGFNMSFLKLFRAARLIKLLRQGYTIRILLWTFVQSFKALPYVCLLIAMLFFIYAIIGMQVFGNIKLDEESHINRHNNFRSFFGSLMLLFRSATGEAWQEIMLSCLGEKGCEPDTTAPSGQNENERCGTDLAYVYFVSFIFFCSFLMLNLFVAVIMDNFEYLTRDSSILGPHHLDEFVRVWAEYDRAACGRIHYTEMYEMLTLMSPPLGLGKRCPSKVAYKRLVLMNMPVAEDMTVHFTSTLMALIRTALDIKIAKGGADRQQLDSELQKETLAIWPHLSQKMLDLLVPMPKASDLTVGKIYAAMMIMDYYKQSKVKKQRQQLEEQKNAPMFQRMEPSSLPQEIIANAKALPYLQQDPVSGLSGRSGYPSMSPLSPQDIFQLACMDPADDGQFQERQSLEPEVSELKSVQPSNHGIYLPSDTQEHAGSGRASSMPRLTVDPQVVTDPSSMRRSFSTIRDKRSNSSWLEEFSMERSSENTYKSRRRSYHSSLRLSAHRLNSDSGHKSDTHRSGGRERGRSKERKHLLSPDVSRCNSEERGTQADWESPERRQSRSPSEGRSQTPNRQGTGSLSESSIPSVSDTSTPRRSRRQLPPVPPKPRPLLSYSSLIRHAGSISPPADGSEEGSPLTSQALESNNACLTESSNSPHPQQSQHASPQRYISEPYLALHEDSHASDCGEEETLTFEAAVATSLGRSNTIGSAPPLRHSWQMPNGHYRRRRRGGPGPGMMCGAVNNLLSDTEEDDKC

Take `CC1CC2(CCC2)CN1S(=O)(=O)c1cccc2c1OC(F)(F)O2` (centres unmarked) [Example 41, 6-((2,2-Difluorobenzo[d][1,3]dioxol-4-yl)sulfonyl)-7-methyl-6-azaspiro[3.4]octane]: the IC50 is 8.32 µM.
With `CC1CC2(CCC2)CN1S(=O)(=O)c1cccc2c1CN(C(=O)C(F)(F)F)CC2` (centres unmarked) [Example 85, 2,2,2-Trifluoro-1-(8-((7-methyl-6-azaspiro[3.4]octan-6-yl)sulfonyl)-3,4-dihydroisoquinolin-2(1H)-yl)ethan-1-one] the figure was 19.1 µM.
As for `Cc1ccc(S(=O)(=O)N2CC3(CCC3)CC2C)s1` (single isomer, unassigned) [Example 77, 7-Methyl-6-((5-methylthiophen-2-yl)sulfonyl)-6-azaspiro[3.4]octane], the figure is 13.8 µM.
As to `Cc1ccc(S(=O)(=O)N2CC3(CCC3)CC2C)s1` (single isomer, unassigned) [Example 78, 7-methyl-6-((5-methylthiophen-2-yl)sulfonyl)-6-azaspiro[3.4]octane], the IC50 was 3.63 µM.
With `CCC1CC2(CCC2)CN1S(=O)(=O)c1ccnc(OC)c1` (centres unmarked) [Example 87, 7-Ethyl-6-((2-methoxypyridin-4-yl)sulfonyl)-6-azaspiro[3.4]octane] the figure was 2 µM.
As for `Cc1ccnc2cc(S(=O)(=O)N3CC4(CCC4)CC3C)ccc12` (single isomer, unassigned) [Example 82, 4-methyl-7-((7-methyl-6-azaspiro[3.4]octan-6-yl)sulfonyl)quinoline], the figure is 10.7 µM; as for `CCc1ncsc1S(=O)(=O)N1CC2(CCC2)CC1C` (centres unmarked) [Example 64, 4-Ethyl-5-((7-methyl-6-azaspiro[3.4]octan-6-yl)sulfonyl)thiazole], 3.72 µM.
Consider `CC1CC2(CCC2)CN1S(=O)(=O)c1cc2oc(=O)[nH]c2cc1Cl` (single isomer, unassigned) [Example 57, 5-Chloro-6-((7-methyl-6-azaspiro[3.4]octan-6-yl)sulfonyl)benzo[d]oxazol-2(3H)-one], for which the IC50 was 5.13 µM.
With `CCC1CC2(CCCC2)CN1S(=O)(=O)c1cccs1` (centres unmarked) [Example 97, 3-Ethyl-2-(thiophen-2-ylsulfonyl)-2-azaspiro[4.4]nonane] the figure was 2.51 µM.
As for `CCC1CC2(CCC2)CN1S(=O)(=O)c1cccs1` (centres unmarked) [Example 69, 7-Ethyl-6-(thiophen-2-ylsulfonyl)-6-azaspiro[3.4]octane], the figure is 2.51 µM.
In the case of `Cc1ccc(S(=O)(=O)N2CC3(CCC3)CC2C)s1` (centres unmarked) [Example 76, 7-Methyl-6-((5-methylthiophen-2-yl)sulfonyl)-6-azaspiro[3.4]octane], the IC50 was 7.94 µM.
With `CCC1CC2(CCC2)CN1S(=O)(=O)c1cccs1` (single isomer, unassigned) [Example 70, 7-Ethyl-6-(thiophen-2-ylsulfonyl)-6-azaspiro[3.4]octane] the figure was 9.55 µM; with `CC1CCC2(CCC2)CN1S(=O)(=O)c1cccs1` (centres unmarked) [Example 60, 7-Methyl-6-(thiophen-2-ylsulfonyl)-6-azaspiro[3.5]nonane], 4.79 µM; with `CC1CC2(CCC2)CN1S(=O)(=O)c1cc2ccccc2o1` (centres unmarked) [Example 66, 6-(Benzofuran-2-ylsulfonyl)-7-methyl-6-azaspiro[3.4]octane], 9.12 µM.
For `Cc1ccnc2cc(S(=O)(=O)N3CC4(CCC4)CC3C)ccc12` (centres unmarked) [Example 80, 4-Methyl-7-((7-methyl-6-azaspiro[3.4]octan-6-yl)sulfonyl)quinoline], the IC50 was 2.82 µM.
For the compound `CC1CC2(CCC2)CN1S(=O)(=O)c1ccco1` (single isomer, unassigned) [Example 38, 6-(furan-2-ylsulfonyl)-7-methyl-6-azaspiro[3.4]octane], the IC50 was 3.39 µM.
With `CC1CC2(CCN1S(=O)(=O)c1cccs1)CC2` (centres unmarked) [Example 74, 5-Methyl-6-(thiophen-2-ylsulfonyl)-6-azaspiro[2.5]octane] the figure was 6.03 µM; with `CC(=O)Nc1nnc(S(=O)(=O)N2CC3(CCC3)CC2C)s1` (centres unmarked) [Example 40, N-(5-((7-methyl-6-azaspiro[3.4]octan-6-yl)sulfonyl)-1,3,4-thiadiazol-2-yl)acetamide], 8.32 µM; with `CCC1CC2(CCC2)CN1S(=O)(=O)c1ccco1` (centres unmarked) [Example 72, 7-Ethyl-6-(furan-2-ylsulfonyl)-6-azaspiro[3.4]octane], 4.37 µM.
With `CC1CC2(CCC2)CN1S(=O)(=O)c1ccc2c(c1)CN(C(=O)C(F)(F)F)CC2` (single isomer, unassigned) [Example 20, 2,2,2-trifluoro-1-(7-((7-methyl-6-azaspiro[3.4]octan-6-yl)sulfonyl)-3,4-dihydroisoquinolin-2(1H)-yl)ethan-1-one] the figure was 4.27 µM; with `CCC1CC2(CCC2)CN1S(=O)(=O)c1ccc2c(c1)CN(C(=O)C(C)C)CC2` (centres unmarked) [Example 34, 1-(7-((7-Ethyl-6-azaspiro[3.4]octan-6-yl)sulfonyl)-3,4-dihydroisoquinolin-2(1H)-yl)-2-methylpropan-1-one], 1.1 µM; with `Cc1ccc(S(=O)(=O)N2CC3(CCC3)CC2C)o1` (single isomer, unassigned) [Example 55, 7-methyl-6-((5-methylfuran-2-yl)sulfonyl)-6-azaspiro[3.4]octane], 4.07 µM.
With `CC1CC2(CCC2)CN1S(=O)(=O)c1cncc(C#N)c1` (centres unmarked) [Example 111, 5-((7-methyl-6-azaspiro[3.4]octan-6-yl)sulfonyl)nicotinonitrile] the figure was 1.95 µM; with `CC1CC2(CCC2)CN1S(=O)(=O)c1nc2ccccc2s1` (centres unmarked) [Example 67, 2-((7-Methyl-6-azaspiro [3.4]octan-6-yl)sulfonyl)benzo[d]thiazole], 9.77 µM.
Consider `COCC1CC2(CCC2)CN1S(=O)(=O)c1cccs1` (centres unmarked) [Example 43, 7-(Methoxymethyl)-6-(thiophen-2-ylsulfonyl)-6-azaspiro[3.4]octane], for which the IC50 is 10.2 µM.
As for `CC1CC2(CCC2)CN1S(=O)(=O)c1ccccc1` (single isomer, unassigned) [Example 47, 7-methyl-6-(phenylsulfonyl)-6-azaspiro[3.4]octane], the figure is 1.58 µM; as for `CC1CC2(CCC2)CN1S(=O)(=O)c1ccc(F)s1` (centres unmarked) [Example 110, 6-((5-fluorothiophen-2-yl)sulfonyl)-7-methyl-6-azaspiro[3.4]octane], 5.01 µM.
With `CCC1CC2(CCC2)CN1S(=O)(=O)c1ccc2c(c1)OC(F)(F)O2` (centres unmarked) [Example 50, 6-((2,2-Difluorobenzo[d][1,3]dioxol-5-yl)sulfonyl)-7-ethyl-6-azaspiro[3.4]octane] the figure was 9.33 µM.
For `CCC1CC2(CCC2)CN1S(=O)(=O)c1ccc2c(c1)S(=O)(=O)CC2` (single isomer, unassigned) [Example 62, 6-((7-Ethyl-6-azaspiro[3.4]octan-6-yl)sulfonyl)-2,3-dihydrobenzo[b]thiophene 1,1-dioxide], the IC50 is 0.676 µM.
As for `CCC1CC2(CCCC2)CN1S(=O)(=O)c1cccs1` (single isomer, unassigned) [Example 98, 3-Ethyl-2-(thiophen-2-ylsulfonyl)-2-azaspiro[4.4]nonane], the figure is 14.5 µM; as for `CC1CC2(CCC2)CN1S(=O)(=O)c1ccc2ccoc2c1` (centres unmarked) [Example 15, 6-(Benzofuran-6-ylsulfonyl)-7-methyl-6-azaspiro[3.4]octane], 1.86 µM; as for `Cc1ccc(S(=O)(=O)N2CC3(CCC3)CC2C)o1` (single isomer, unassigned) [Example 54, 7-Methyl-6-((5-methylfuran-2-yl)sulfonyl)-6-azaspiro[3.4]octane], 8.13 µM.
